Assay results published in patent publication US7807781B2, “Inhibitors of serine protease activity and their use in methods and compositions for treatment of viral infections” (The Regents of the University of Colorado, priority 1999, dated 2010).

B1: UTI: Human urinary trypsin inhibitor, a protein indistinguishable from ITI (protein, UniProt P02760 206-352, looked up)
Inter-alpha-trypsin inhibitor …: AVLPQEEEGSGGGQLVTEVTKKEDSCQLGYSAGPCMGMTSRYFYNGTSMACETFQYGGCMGNGNNFVTEKECLQTCRTVAACNLPIVRGPCRAFIQLWAFDAVKGKCVLFPYGGCQGNGNKFYSEKECREYCGVPGDGDEELLRFSN
modifications: Inter-alpha-trypsin inhibitor light chain

Test system: HIV-infected CCRF-CEM and uninfected Molt-4 cells
Assay: not given
Details: cited from earlier work
In the case of B1, the “concentration range of dose-dependent inhibition of syncytium formation” value is listed as 0.1 to 1 mM.

Test system: HIV-1 strain A018A in MAGI-CCR-5 cells
Assay: not given
Format: cell-based
Details: compared with FVYLI (FIG. 4); alone or in combination; not shown
With “FLFAV: short peptide related to C-terminal pentapeptide of AAT” the “effect on HIV production in MAGI cells” value was “more or less similar effect”. With “FLFCI: short peptide related to C-terminal pentapeptide of AAT” the “effect on HIV production in MAGI cells” value was “more or less similar effect”. With “FLFLI: short peptide related to C-terminal pentapeptide of AAT” the “effect on HIV production in MAGI cells” value was “more or less similar effect”. In the case of “FLVFI: short peptide related to C-terminal pentapeptide of AAT”, the “effect on HIV production in MAGI cells” value is reported as “more or less similar effect”. In the case of “FVFLM: short peptide related to C-terminal pentapeptide of AAT”, the “effect on HIV production in MAGI cells” value is reported as “more or less similar effect”. In the case of “FIIMI: short peptide related to C-terminal pentapeptide of AAT”, the “effect on HIV production in MAGI cells” value is reported as “more or less similar effect”. In the case of “FVFLA: short peptide related to C-terminal pentapeptide of AAT”, the “effect on HIV production in MAGI cells” value is reported as “more or less similar effect”. For “FVFAM: short peptide related to C-terminal pentapeptide of AAT”, the “effect on HIV production in MAGI cells” value was “more or less similar effect”. With “AVFLM: short peptide related to C-terminal pentapeptide of AAT” the “effect on HIV production in MAGI cells” value was “more or less similar effect”. For “FLFVL: short peptide related to C-terminal pentapeptide of AAT”, the “effect on HIV production in MAGI cells” value was “more or less similar effect”. In the case of “FVALM: short peptide related to C-terminal pentapeptide of AAT”, the “effect on HIV production in MAGI cells” value is reported as “more or less similar effect”. With “FLFFI: short peptide related to C-terminal pentapeptide of AAT” the “effect on HIV production in MAGI cells” value was “more or less similar effect”. For “FVYLI: carboxyterminal peptide derived but not necessarily identical to a respective C-terminal pentapeptide from AAT”, the “effect on HIV production in MAGI cells” value was “more or less similar effect”. In the case of “FLMII: short peptide related to C-terminal pentapeptide of AAT”, the “effect on HIV production in MAGI cells” value is reported as “more or less similar effect”. In the case of “FLMFI: short peptide related to C-terminal pentapeptide of AAT”, the “effect on HIV production in MAGI cells” value is reported as “more or less similar effect”. For “FMLLI: short peptide related to C-terminal pentapeptide of AAT”, the “effect on HIV production in MAGI cells” value was “more or less similar effect”. With “FAFLM: short peptide related to C-terminal pentapeptide of AAT” the “effect on HIV production in MAGI cells” value was “more or less similar effect”. In the case of “FLFVV: short peptide related to C-terminal pentapeptide of AAT”, the “effect on HIV production in MAGI cells” value is reported as “more or less similar effect”.

Test system: NF-κB
Assay: IL-18-induced NF-κB expression
Format: cell-based
Details: compared with IL-18 alone (lane 4)
For `Cc1cccc(Cc2nnc(C(=O)C(NC(=O)[C@@H]3CCCN3C(=O)[C@@H](NC(=O)OCc3ccccc3)C(C)C)C(C)C)o2)c1` (stereo partly shown) [P3 inh], the “IL-18-induced NF-κB expression” value was “reduced”.

Test system: HIV-1 production in U1 cells
Assay: U1 monocytic cell assay, IL-18-induced HIV-1 p24 antigen
Format: cell-based
Details: doses comparable to the composition of the invention (FIG. 6)
Text: U1 monocytic cell assay. U1 cells are obtained from the AIDS Research and Reference Reagent Program, National Institute of Allergy and Infectious Diseases, NIH. U1 cells are maintained in T-175 polystyrene flasks (Falcon, Becton Dickinson, Franklin Lakes, N.J.) in medium and used when in log phase growth. Cells are counted in a hemacytometer, examined for viability by Trypan blue exclusion (>95% for all experiments) and resuspended in fresh medium at 2×10^6 per ml. Two-hundred fifty […] are added to wells of 24-well polystyrene tissue culture plates (Falcon), followed by the addition of medium or AAT to produce the final concentration to be tested in a volume of […]. After 1.0 hr of incubation (37° C., 5% CO2), 50 ml of medium (control) or stimulus diluted in medium are added to wells to produce the final concentration of stimulus to be tested. The final culture volumes are […] and contained 1×10^6 cells per ml. After 48 hr of incubation (37° C. and 5% CO2) 50 ml of 10% (vol/vol) Triton-X-100 (Fisher Scientific, Fair Lawn, N.J.) is added to each culture (final concentration of 1% vol/vol), and cultures are frozen and thawed once. This is followed by assay for HIV-1 p24 antigen by ELISA with a lower limit of detection of 31 pg/ml (NCI-Frederick Cancer Research and Development Center, Frederick, Md.). The disruption of cells due to the addition of Triton-X-100 and the freeze-thaw cycle produced cell lysates and enabled assessment of total (secreted and cell-associated) production of p24 antigen.
Data are presented as means±SEM. Group means are compared by ANOVA using Fisher's least significant difference. For data expressed as percent change, the values for p24 in control cultures (medium alone) are subtracted from those for each culture-containing stimulus. The p24 concentrations in cultures conducted in the presence of stimulus alone are set at 100%. Percent p24 in cultures containing stimulus and AAT are calculated by dividing the measured p24 by that present in cultures containing stimulus alone. The resultant fraction is expressed as a percent.
The U1 cell line is derived from human monocytic U937 cells into which 2 copies of HIV-1 provirus are incorporated into host genome. Exposing U1 cells to pro-inflammatory cytokines such as IL-18, IL-1, IL-6 and TNF, phorbol esters or hyperosmolarity results in the induction of HIV-1 as assessed by p24 antigen. Stimulation of U1 cells with 0.5 nM IL-18 induced large amounts of p24 antigen after 48 hr of incubation in 3 separate experiments. U1 cells cultured in medium alone (control) contained a mean of 41.3±11.5 pg/ml p24 antigen, which is increased 150-fold to 6,235±1,775 pg/ml p24 following stimulation with IL-18. […] At 1, 2 and 3 mg/ml AAT, the percent reductions observed compared to stimulation with IL-18 alone are 65±1.8, 93±3.0 and 98±1%, respectively.
For “Prolastin: commercially available purified variant of AAT sold by Bayer, used as control AAT preparation”, the anti-HIV activity was “fails to display anti-HIV activity”.

Same assay, conditions: same experimental condition as in Example 1 (FIG. 11)
For `Cc1cccc(Cc2nnc(C(=O)C(NC(=O)[C@@H]3CCCN3C(=O)[C@@H](NC(=O)OCc3ccccc3)C(C)C)C(C)C)o2)c1` (stereo partly shown) [P3 inh], the anti-HIV effect was “significant anti-HIV effect”.
